Test results as given in paper PMC5391171 (Journal of molecular and cellular cardiology, 2016).

Columns and labels:
[1] = target: cChimera (cNTnC-cTnI [136–163] chimera) (Homo sapiens, UniProt P19429+P63316, C35S/C84S); experiment: NMR titration; type: binding
[2] = test system: cardiac isoform of troponin; settings: cited from earlier work
[3] = titration monitored by chemical shift changes

Row | Compound | Binding to cChimera [1, 3] | Kd [1] | other results
1 | Cc1ccc(S(=O)(=O)Nc2ccc(Nc3ccccc3)cc2)cc1 [NSC41053] | NSC41053 Weak binding (very small chemical shift changes that could not be fit to a saturating curve, indicating a KD > 2 mM) |  | 
2 | O=C(O)c1ccccc1Nc1ccccc1 [NSC215211] |  | 800 µM | 
3 | c1ccc(CNCc2ccccc2)cc1 [dibenzylamine] |  |  | Binding to cChimera ([1]; addition of a methylene carbon relative to benzylaniline): completely abolished binding
4 | C#Cc1cnc2nc(O)n(C(CC)CC)c2n1 [tirasemtiv] |  |  | activity towards the cardiac isoform of troponin [2]: no activity
5 | O=[N+]([O-])c1cccc(Cc2ccc(Cc3cccc([N+](=O)[O-])c3)cc2)c1 [NSC89784] | NSC89784 Weak binding (very small chemical shift changes that could not be fit to a saturating curve, indicating a KD > 2 mM) |  | 
6 | Clc1cccc(Nc2ccccc2)c1 [3-chlorodiphenylamine] |  | 10 µM | 
